Laboratory results taken from US20230295157A1, “3-(1H-IMIDAZOL-2-YL)-2,3,8,8A-TETRAHYDROINDOLIZIN-5(1H)-ONE DERIVATIVES USEFUL AS FACTOR XIA INHIBITORS” (JANSSEN PHARMACEUTICA NV, priority 2020, published 2023).
Read-outs that look alike come from different tables or passages of the source.

Experiments:
human plasma kallikrein = human plasma kallikrein (Homo sapiens (Human), UniProt P03952); experiment: Kallikrein inhibition assay (FLINT) utilizing a quenched AMC peptide substrate; type: biochemical; conditions: 30 min preincubation, read-out: Kallikrein Kin Inh IC50
human plasma kallikrein, sequence (P03952 391-638): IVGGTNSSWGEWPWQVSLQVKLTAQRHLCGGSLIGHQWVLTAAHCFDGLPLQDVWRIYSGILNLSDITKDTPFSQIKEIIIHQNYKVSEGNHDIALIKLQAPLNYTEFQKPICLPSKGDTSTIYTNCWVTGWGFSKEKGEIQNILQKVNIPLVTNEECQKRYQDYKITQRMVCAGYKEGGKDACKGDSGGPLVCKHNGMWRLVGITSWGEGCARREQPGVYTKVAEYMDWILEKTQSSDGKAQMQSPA
human plasma kallikrein, sequence (P03952 20-390 partner): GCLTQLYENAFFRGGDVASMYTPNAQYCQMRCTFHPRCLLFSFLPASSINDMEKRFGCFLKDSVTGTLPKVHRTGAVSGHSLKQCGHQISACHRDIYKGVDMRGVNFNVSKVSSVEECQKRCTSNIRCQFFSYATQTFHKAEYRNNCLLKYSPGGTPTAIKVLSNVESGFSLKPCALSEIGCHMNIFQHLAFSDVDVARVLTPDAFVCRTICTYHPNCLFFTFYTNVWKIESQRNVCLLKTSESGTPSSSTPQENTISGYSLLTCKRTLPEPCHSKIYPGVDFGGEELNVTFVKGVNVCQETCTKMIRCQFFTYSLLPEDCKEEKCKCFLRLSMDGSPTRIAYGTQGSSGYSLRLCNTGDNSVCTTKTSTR
In short: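 Fluorogenic Z-Gly-Pro-Arg-AMC cleavage (50 μM substrate, 2 nM kallikrein, Tris pH 7.5, CaCl2, BSA, CHAPS, 2% DMSO) read kinetically at 340/440 nm for 30 min after 30-min compound pre-incubation. Compounds in 11-point 3-fold series from 1 μM; percent inhibition fitted to four-parameter equation for IC50.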

Factor XIa = Factor XIa (Homo sapiens (Human), UniProt P03951); experiment: Factor XIa inhibition assay (FLINT) utilizing a fluorophore-quencher pair peptide substrate; type: biochemical; conditions: 30 min preincubation, kinetic reads over 30 min, read-out: FXIa Kin Inh IC50
Factor XIa, sequence (P03951 388-625): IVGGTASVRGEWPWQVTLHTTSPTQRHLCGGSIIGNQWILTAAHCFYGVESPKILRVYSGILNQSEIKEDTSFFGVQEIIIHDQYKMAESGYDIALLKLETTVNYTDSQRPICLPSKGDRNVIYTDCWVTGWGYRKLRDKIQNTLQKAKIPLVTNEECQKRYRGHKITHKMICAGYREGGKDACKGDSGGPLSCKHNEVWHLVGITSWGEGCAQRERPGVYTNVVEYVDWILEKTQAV
Factor XIa, sequence (P03951 19-387 partner): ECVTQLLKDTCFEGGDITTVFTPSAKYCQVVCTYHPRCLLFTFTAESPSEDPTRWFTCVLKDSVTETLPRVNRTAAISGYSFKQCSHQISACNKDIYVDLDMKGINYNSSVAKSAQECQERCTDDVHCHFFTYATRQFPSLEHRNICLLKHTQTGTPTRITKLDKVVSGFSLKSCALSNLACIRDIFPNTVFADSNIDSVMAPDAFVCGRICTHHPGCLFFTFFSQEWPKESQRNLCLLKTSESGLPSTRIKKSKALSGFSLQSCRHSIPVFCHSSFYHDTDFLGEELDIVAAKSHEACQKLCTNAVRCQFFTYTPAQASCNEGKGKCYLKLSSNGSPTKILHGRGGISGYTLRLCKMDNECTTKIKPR
In short: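 FXIa ([…]) preincubated 30 min with compound (11-point 3-fold dilution, top 100 nM, 2% DMSO), then 15 μM quenched FXI Arg146-based peptide added; Tris pH 7.5, CaCl2, BSA, CHAPS. Fluorescence 485/520 nm read kinetically every 5 min over 30 min at RT; IC50 by 4-parameter fit.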

[1] = kinetic reads over 30 min, Z-Gly-Pro-Arg-AMC substrate 50 μM
[2] = 5Fam-[…]-K5Tamra substrate 15 μM
[3] = 5Fam-KLTRAETV-K5Tamra substrate 15 μM

SMILES | IC50 (human plasma kallikrein; [1]) | IC50 (Factor XIa; [2]) | IC50 (human plasma kallikrein; μM, kinetic reads) | IC50 (Factor XIa; [3])
O=C1C=C(c2c(C(F)F)ccc(Cl)c2F)C[C@H]2CC[C@@H](c3ncc(-c4ccnc(CO)c4F)[nH]3)N12 [Example 26, (3S,8aR)-7-(3-Chloro-6-(difluoromethyl)-2-fluorophenyl)-3-(5-(3-fluoro-2-(hydroxymethyl)pyridin-4-yl)-1H-imidazol-2-yl)-2,3,8,8a-tetrahydroindolizin-5(1H)-one] | 0.27 µM | > 100 nM |  | 
Cn1cnc(-c2c[nH]c([C@@H]3CC[C@H]4CC(c5c(-n6cnnn6)ccc(Cl)c5F)=CC(=O)N43)n2)n1 [Example 274, (3S,8aS)-7-(3-Chloro-2-fluoro-6-(1H-tetrazol-1-yl)phenyl)-3-(4-(1-methyl-1H-1,2,4-triazol-3-yl)-1H-imidazol-2-yl)-2,3,8,8a-tetrahydroindolizin-5(1H)-one] |  |  | > 1 µM | > 100 nM
NC(=O)c1nccc(-c2cnc([C@@H]3CC[C@@H]4CC(c5c(-n6cnnn6)ccc(Cl)c5F)=CC(=O)N43)[nH]2)c1F [Example 181, 4-(2-((3S,8aR)-7-(3-chloro-2-fluoro-6-(1H-tetrazol-1-yl)phenyl)-5-oxo-1,2,3,5,8,8a-hexahydroindolizin-3-yl)-1H-imidazol-5-yl)-3-fluoropicolinamide] | 0.0178 µM |  |  | 8.3 nM
O=C1Nc2ccc(-c3cnc([C@@H]4CC[C@H]5CC(c6c(-n7cnnn7)ccc(Cl)c6F)=CC(=O)N54)[nH]3)cc2CO1 (relative stereo) [Example 278] | 0.0019 µM | 0.5 nM |  | 
O=C1C=C(c2c(-n3cnnn3)ccc(Cl)c2F)C[C@H]2CC[C@@H](c3ncc(-c4c[nH]c(C(F)(F)F)n4)[nH]3)N12 [Example 231, (3S,8aR)-7-(3-Chloro-2-fluoro-6-(1H-tetrazol-1-yl)phenyl)-3-(2-(trifluoromethyl)-1H,3′H-[4,4′-biimidazol]-2′-yl)-2,3,8,8a-tetrahydroindolizin-5(1H)-one] | 0.0846 µM |  |  | 37.1 nM
NC(=O)c1ncc(-c2cnc([C@@H]3CC[C@@H]4CC(c5c(-n6cc(Cl)nn6)ccc(Cl)c5F)=CC(=O)N43)[nH]2)s1 [Example 208, 5-(2-((3S,8aR)-7-(3-Chloro-6-(4-chloro-1H-1,2,3-triazol-1-yl)-2-fluorophenyl)-5-oxo-1,2,3,5,8,8a-hexahydroindolizin-3-yl)-1H-imidazol-5-yl)thiazole-2-carboxamide] | 0.0078 µM |  |  | 4.6 nM
CNc1ccc(-c2cnc([C@@H]3CCC4CC(c5c(-n6cnnn6)ccc(Cl)c5F)=CC(=O)N43)[nH]2)c(F)n1 (stereo partly drawn) [Example 368, (3S)-7-(3-chloro-2-fluoro-6-(1H-tetrazol-1-yl)phenyl)-3-(5-(2-fluoro-6-(methylamino)pyridin-3-yl)-1H-imidazol-2-yl)-2,3,8,8a-tetrahydroindolizin-5(1H)-one] | 0.0074 µM |  |  | 0.7 nM
CC(O)COc1nccc(-c2cnc([C@@H]3CC[C@H]4CC(c5c(-n6cnnn6)ccc(Cl)c5F)=CC(=O)N43)[nH]2)c1F (single isomer, unassigned) [Example 29] | 0.307 µM |  |  | 57.9 nM
NC(=O)c1ccc(-c2cnc([C@@H]3CC[C@@H]4CC(c5c(-n6cc(Cl)nn6)ccc(Cl)c5F)=CC(=O)N43)[nH]2)s1 [Example 207, 5-(2-((3S,8aR)-7-(3-Chloro-6-(4-chloro-1H-1,2,3-triazol-1-yl)-2-fluorophenyl)-5-oxo-1,2,3,5,8,8a-hexahydroindolizin-3-yl)-1H-imidazol-5-yl)thiophene-2-carboxamide] | 0.0077 µM |  |  | 2.5 nM
NC(=O)c1cc(-c2cnc([C@@H]3CC[C@@H]4CC(c5c(-n6cc(C(F)(F)F)nn6)ccc(Cl)c5F)=CC(=O)N43)[nH]2)ccn1 [Example 204, 4-(2-((3S,8aR)-7-(3-Chloro-2-fluoro-6-(4-(trifluoromethyl)-1H-1,2,3-triazol-1-yl)phenyl)-5-oxo-1,2,3,5,8,8a-hexahydroindolizin-3-yl)-1H-imidazol-5-yl)picolinamide] | 0.0245 µM |  |  | 29.1 nM
CCOC(=O)Nc1ncccc1-c1c[nH]c([C@@H]2CC[C@@H]3CC(c4c(-n5cnnn5)ccc(Cl)c4F)=CC(=O)N32)n1 [Example 254, Ethyl N-[3-[2-[(3S,8aR)-7-[3-chloro-2-fluoro-6-(tetrazol-1-yl)phenyl]-5-oxo-2,3,8,8a-tetrahydro-1H-indolizin-3-yl]-1H-imidazol-4-yl]-2-pyridyl]carbamate] | 0.15 µM |  |  | 16.7 nM
CCC(=O)Nc1ccccc1-c1c[nH]c([C@@H]2CC[C@@H]3CC(c4c(-n5cnnn5)ccc(Cl)c4F)=CC(=O)N32)n1 (single isomer, unassigned) [Example 295, N-(2-(2-((3S,8aR*)-7-(3-Chloro-2-fluoro-6-(1H-tetrazol-1-yl)phenyl)-5-oxo-1,2,3,5,8,8a-hexahydroindolizin-3-yl)-1H-imidazol-4-yl)phenyl)propionamide] | 0.0026 µM |  |  | 0.7 nM
O=C1C=C(c2c(-n3cnnn3)ccc(Cl)c2F)C[C@H]2CC[C@H](c3ncc(-c4ccnc(-n5ccnn5)c4F)[nH]3)N12 (single isomer, unassigned) [Example 71, (3R*,8aR)-7-(3-chloro-2-fluoro-6-(1H-tetrazol-1-yl)phenyl)-3-(5-(3-fluoro-2-(1H-1,2,3-triazol-1-yl)pyridin-4-yl)-1H-imidazol-2-yl)-2,3,8,8a-tetrahydroindolizin-5(1H)-one] | 0.0194 µM | 13.8 nM |  | 
CC(C)(CO)Nc1nccc(-c2cnc([C@@H]3CC[C@@H]4CC(c5cc(Cl)ccc5-n5cnnn5)=CC(=O)N43)[nH]2)c1F [Example 79, (3S,8aR)-7-[5-chloro-2-(tetrazol-1-yl)phenyl]-3-[5-[3-fluoro-2-[(2-hydroxy-1,1-dimethyl-ethyl)amino]-4-pyridyl]-1H-imidazol-2-yl]-2,3,8,8a-tetrahydro-1H-indolizin-5-one] | 0.0122 µM |  |  | 7.5 nM
Cc1nc2ccc(-c3cnc([C@@H]4CC[C@@H]5CC(c6c(-n7cnnn7)ccc(Cl)c6F)=CC(=O)N54)[nH]3)cc2[nH]1 [Example 30, (3S,8aR)-7-(3-chloro-2-fluoro-6-(1H-tetrazol-1-yl)phenyl)-3-(5-(2-methyl-1H-benzo[d]imidazol-6-yl)-1H-imidazol-2-yl)-2,3,8,8a-tetrahydroindolizin-5(1H)-one] | 0.0044 µM |  |  | 2.1 nM
NC(=O)c1scc(-c2c[nH]c([C@@H]3CC[C@@H]4CC(c5c(-n6cnnn6)ccc(Cl)c5F)=CC(=O)N43)n2)c1F [Example 214, 4-(2-((3S,8aR)-7-(3-Chloro-2-fluoro-6-(1H-tetrazol-1-yl)phenyl)-5-oxo-1,2,3,5,8,8a-hexahydroindolizin-3-yl)-1H-imidazol-4-yl)-3-fluorothiophene-2-carboxamide] | 0.0017 µM |  |  | 1.4 nM
O=C1C=C(c2cc(Cl)ccc2-n2cnnn2)C[C@H]2CC[C@@H](c3ncc(-c4ccc(NC56CC(C5)C6)nc4F)[nH]3)N12 [Example 83] | 0.0575 µM |  |  | 17.4 nM
Nc1cc(-c2cnc([C@@H]3CC[C@@H]4CC(c5c(-n6cnnn6)ccc(Cl)c5F)=CC(=O)N43)[nH]2)ccn1 [Example 389, (3S,8aR)-3-(5-(2-aminopyridin-4-yl)-1H-imidazol-2-yl)-7-(3-chloro-2-fluoro-6-(1H-tetrazol-1-yl)phenyl)-2,3,8,8a-tetrahydroindolizin-5(1H)-one] | 0.0124 µM |  |  | 1.4 nM
C[C@@H]1C[C@@H](c2ncc(-c3ccc(N)nc3F)[nH]2)N2C(=O)C=C(c3c(-n4cnnn4)ccc(Cl)c3F)C[C@H]12 (single isomer, unassigned) [Example 345, (1*R,3S,8a*R)-3-(5-(6-Amino-2-fluoropyridin-3-yl)-1H-imidazol-2-yl)-7-(3-chloro-2-fluoro-6-(1H-tetrazol-1-yl)phenyl)-1-methyl-2,3,8,8a-tetrahydroindolizin-5(1H)-one] | 0.0145 µM |  |  | 2.6 nM
[2H]c1cc(Cl)c(F)c(C2=CC(=O)N3[C@H](CC[C@H]3c3nc([2H])c(-c4ccc(N)nc4F)[nH]3)C2)c1-n1cnnn1 [Example 129, (3S,8aR)-3-(5-(6-amino-2-fluoropyridin-3-yl)-1H-imidazol-2-yl-4-d)-7-(3-chloro-2-fluoro-6-(1H-tetrazol-1-yl)phenyl-5-d)-2,3,8,8a-tetrahydroindolizin-5(1H)-one] | 0.0054 µM | 0.4 nM |  | 
CC(C)(O)CNc1nccc(-c2[nH]c([C@@H]3CC[C@@H]4CC(c5cc(Cl)ccc5-n5cnnn5)=CC(=O)N43)nc2F)c1F [Example 84, (3S,8aR)-7-[5-chloro-2-(tetrazol-1-yl)phenyl]-3-[4-fluoro-5-[3-fluoro-2-[(2-hydroxy-2-methyl-propyl)amino]-4-pyridyl]-1H-imidazol-2-yl]-2,3,8,8a-tetrahydro-1H-indolizin-5-one] | 0.003 µM |  |  | 0.3 nM
Cn1cc(-c2c[nH]c([C@@H]3CCC4CC(c5c(-n6cnnn6)ccc(Cl)c5F)=CC(=O)N43)n2)c(NC(=O)C2CC2)n1 (stereo partly drawn) [Example 259, N-[4-[2-[(3S)-7-[3-Chloro-2-fluoro-6-(tetrazol-1-yl)phenyl]-5-oxo-2,3,8,8a-tetrahydro-1H-indolizin-3-yl]-1H-imidazol-4-yl]-1-methyl-pyrazol-3-yl]cyclopropanecarboxamide] | 0.021 µM |  |  | 2.7 nM
